≈ marks a conversion by molar mass, not a printed value. Read-outs that look alike come from different tables or passages of the source.
Legend:
[1] = test system: Aspergillus niger LOCK E201; experiment: Antifungal activity in vitro, serial dilution in RPMI 1640; type: cell-based; details: Table 2B
How it was run: (§1)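 Broth serial dilution per M27-A2 in buffered RPMI 1640, pH 7.0. Growth read as optical density at 531 nm; IC50 interpolated as concentration giving 50% of control A531, MIC as lowest concentration giving at most 20% of control A531.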

[2] = test system: Candida albicans ATCC 10231; experiment: as above; type: cell-based; details: for Antifungal activity Candida albicans ATCC 10231 IC50 / Antifungal activity Candida albicans ATCC 10231 MIC: Table 2A, RPMI 1640, pH 7.0; for Antifungal activity Candida albicans ATCC 10231 IC50: A531 50% of control; for Antifungal activity Candida albicans ATCC 10231 MIC: A531 at most 20% of control; for MIC Candida albicans ATCC 10231: Table 2B
How it was run: as §1

[3] = test system: Candida arborea KKP 319; experiment: as above; type: cell-based; details: Table 2B
How it was run: as §1

[4] = test system: Candida dubliniensis CBS 7987; experiment: as above; type: cell-based; details: Table 2B
How it was run: as §1

[5] = test system: Candida glabrata DSM 11226; experiment: as above; type: cell-based; details: Table 2A; RPMI 1640, pH 7.0
How it was run: as §1

[6] = test system: Candida krusei DSM 6128; experiment: as above; type: cell-based; details: Table 2A; RPMI 1640, pH 7.0
How it was run: as §1

[7] = test system: Candida lipolytica KKP 322; experiment: as above; type: cell-based; details: Table 2B
How it was run: as §1

[8] = test system: Candida parapsilosis DSM 5784; experiment: as above; type: cell-based; details: Table 2B
How it was run: as §1

[9] = test system: Candida pseudotropicalis KKP 324; experiment: as above; type: cell-based; details: Table 2B
How it was run: as §1

[10] = test system: Candida quilliermondii DSM 11947; experiment: as above; type: cell-based; details: Table 2B
How it was run: as §1

[11] = test system: Candida stellatoidea CBS 1905; experiment: as above; type: cell-based; details: Table 2B
How it was run: as §1

[12] = test system: Candida tropicalis KKP 334; experiment: as above; type: cell-based; details: Table 2A; RPMI 1640, pH 7.0
How it was run: as §1

[13] = test system: Saccharomyces cerevisiae ATCC 9763; experiment: as above; type: cell-based; details: for Antifungal activity Saccharomyces cerevisiae ATCC 9763 MIC: Table 2A, RPMI 1640, pH 7.0, A531 at most 20% of control; for MIC Saccharomyces cerevisiae ATCC 9763: Table 2B
How it was run: as §1

[14] = test system: Trichoderma viride LOCK E159; experiment: as above; type: cell-based; details: Table 2B
How it was run: as §1

[15] = test system: Human erythrocytes; experiment: Hemotoxicity (hemolytic activity)
How it was run: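 Human erythrocytes in saline (2×10^7/ml) were incubated with serially diluted compound at 37 °C for 30 min, then centrifuged. Released hemoglobin was read as A540 against 0.1% Triton X-100 as full hemolysis. EH50 is the interpolated concentration giving 50% of the control A540.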

[16] = test system: Candida albicans 5674; experiment: Antifungal activity towards resistant (MDR) strains; type: cell-based; details: C. albicans 5674 overexpressing CDR1 and CDR2
Experimental: (§2) The determination of antifungal activity was performed by the serial dilutions method in buffered RPMI 1640 medium, in a 96-wells microplates, according to the standard procedure (National Committee for Clinical Laboratory Standards. Reference method for broth dilution antifungal susceptibility testing of yeast, approved standard, 2nd ed. M27-A2 vol. 22 Wayne, Pa., 2002). The optical density of cells suspension was measured using a microplates reader (Victor^3, Perkin-Elmer) at the wavelength λ=660 nm (A660). On the basis of received results the diagrams on interrelation between the A660 value and the concentration of tested compound were made. From these graphs MIC values were read, that are the concentrations of tested compounds, in the presence at which A660 value is at most 20% of A660 value measured in control sample.

[17] = test system: Candida albicans B3; experiment: as above; type: cell-based; details: fluconazole sensitive, parent strain for B4
Experimental: as §2

[18] = test system: Candida albicans B4; experiment: as above; type: cell-based; details: fluconazole-resistant due to the overexpression of CaMDR1
Experimental: as §2

[19] = test system: Candida albicans F2; experiment: as above; type: cell-based; details: fluconazole sensitive, parent strain for F5
Experimental: as §2

[20] = test system: Candida albicans F5; experiment: as above; type: cell-based; details: fluconazole-resistant due to the overexpression of CaMDR1 and ERG11
Experimental: as §2

[21] = test system: Candida albicans Gu4; experiment: as above; type: cell-based; details: fluconazole sensitive, parent strain for Gu5
Experimental: as §2

[22] = test system: Candida albicans Gu5; experiment: as above; type: cell-based; details: fluconazole-resistant due to the overexpression of CDR1 and CDR2
Experimental: as §2

[23] = test system: Candida albicans STY19; experiment: as above; type: cell-based; details: 5674 mutant derivative, deletion of CDR1
Experimental: as §2

[24] = test system: Candida albicans STY31; experiment: as above; type: cell-based; details: 5674 mutant derivative, deletion of CDR1 and CDR2
Experimental: as §2

[25] = test system: Candida albicans STY7; experiment: as above; type: cell-based; details: 5674 mutant derivative, deletion of CDR2
Experimental: as §2

[26] = test system: CCRF-CEM; experiment: Cytotoxic activity against mammalian cells in tissue culture (MTT); type: cell-based, human
How it was run: (§3)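 Cells at 1.2×10^4/well were exposed to serial 2× DMSO dilutions for 120 h at 37 °C: CCRF-CEM in RPMI 1640 + 10% FBS, HepG2 in MEM + 10% FBS, LLC-PK1 in Medium 199 + 3% FBS. MTT was added for 4 h and A540 read. IC50 is the concentration halving A540 versus DMSO control.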

[27] = test system: HepG2; experiment: as above; type: cell-based, human
How it was run: as §3

[28] = test system: LLC-PK1; experiment: as above; type: cell-based, pig
How it was run: as §3

Row | Compound | MIC Aspergillus niger LOCK E201 [1] [µg/mL] | Antifungal activity Candida albicans ATCC 10231 IC50 [2] [µg/mL] | Antifungal activity Candida albicans ATCC 10231 MIC [2] [µg/mL] | MIC Candida albicans ATCC 10231 [2] [µg/mL] | MIC Candida arborea KKP 319 [3] [µg/mL] | MIC Candida dubliniensis CBS 7987 [4] [µg/mL] | Antifungal activity Candida glabrata DSM 11226 MIC [5] [µg/mL] | Antifungal activity Candida krusei DSM 6128 MIC [6] [µg/mL] | MIC Candida lipolytica KKP 322 [7] [µg/mL] | MIC Candida parapsilosis DSM 5784 [8] [µg/mL] | MIC Candida pseudotropicalis KKP 324 [9] [µg/mL] | MIC Candida quilliermondii DSM 11947 [10] [µg/mL] | MIC Candida stellatoidea CBS 1905 [11] [µg/mL] | Antifungal activity Candida tropicalis KKP 334 MIC [12] [µg/mL] | Antifungal activity Saccharomyces cerevisiae ATCC 9763 MIC [13] [µg/mL] | MIC Saccharomyces cerevisiae ATCC 9763 [13] [µg/mL] | MIC Trichoderma viride LOCK E159 [14] [µg/mL] | MIC Candida albicans 5674 [16] [µg/mL] | MIC Candida albicans B3 [17] [µg/mL] | MIC Candida albicans B4 [18] [µg/mL] | also measured
1 | CCCN(CCC)[C@@H]1[C@H](O)[C@H](O[C@H]2/C=C/C=C/C=C/C=C/CC/C=C/C=C/[C@H](C)[C@@H](O)[C@@H](C)[C@H](C)OC(=O)C[C@H](O)C[C@H](O)C[C@H](O)CC[C@@H](O)[C@H](O)C[C@]3(O)C[C@H](O)[C@@H](C(=O)O)[C@H](C2)O3)O[C@H](C)[C@H]1O [Compound N22, N,N-di-n-propylnystatin A1] | 8 (≈ 7.92 µM) | 3.14 | 4 | 4 (≈ 3.96 µM) | 8 (≈ 7.92 µM) | 2 (≈ 1.98 µM) | 4 | 8 | 4 (≈ 3.96 µM) | 8 (≈ 7.92 µM) | 4 (≈ 3.96 µM) | 8 (≈ 7.92 µM) | 4 (≈ 3.96 µM) | 4 | 2 | 2 (≈ 1.98 µM) | 8 (≈ 7.92 µM) | 4 (≈ 3.96 µM) | 8 (≈ 7.92 µM) | 8 (≈ 7.92 µM) | EH10 [15]: 202.34 µg/mL; MIC Candida albicans F2 [19]: 4 µg/mL (≈ 3.96 µM); MIC Candida albicans F5 [20]: 4 µg/mL (≈ 3.96 µM); MIC Candida albicans Gu4 [21]: 8 µg/mL (≈ 7.92 µM); MIC Candida albicans Gu5 [22]: 8 µg/mL (≈ 7.92 µM); MIC Candida albicans STY19 [23]: 4 µg/mL (≈ 3.96 µM); MIC Candida albicans STY31 [24]: 4 µg/mL (≈ 3.96 µM); MIC Candida albicans STY7 [25]: 4 µg/mL (≈ 3.96 µM); Cytotoxicity IC50 CCRF-CEM [26]: >100 µg/mL; Cytotoxicity IC50 HepG2 [27]: 82.9 ± 19.87 µg/mL; Cytotoxicity IC50 LLC-PK1 [28]: >100 µg/mL
2 | N-[L-(N,N-dimethyl)phenylalanyl]nystatin A1 [Compound N45] | 8 | 2.83 | 4 | 4 | 8 | 2 | 4 | 8 | 8 | 4 | 4 | 4 | 4 | 4 | 2 | 2 | 16 | 8 | 4 | 4 | % of hemolysis at the concentration 300 μg ml^−1 [15]: 7.11%; EH10 ([15]; human erythrocytes, concentration causing 10% of hemolysis): >300 µg/mL; MIC Candida albicans F2 [19]: 8 µg/mL; MIC Candida albicans F5 [20]: 8 µg/mL; MIC Candida albicans Gu4 [21]: 4 µg/mL; MIC Candida albicans Gu5 [22]: 4 µg/mL; MIC Candida albicans STY19 [23]: 4 µg/mL; MIC Candida albicans STY31 [24]: 8 µg/mL; MIC Candida albicans STY7 [25]: 8 µg/mL; Cytotoxicity IC50 CCRF-CEM ([26]; CCRF-CEM, 120 h, MTT): >100 µg/mL; Cytotoxicity IC50 HepG2 ([27]; HepG2, 120 h, MTT): >100 µg/mL; Cytotoxicity IC50 LLC-PK1 ([28]; LLC-PK1, 120 h, MTT): >100 µg/mL
3 | CC1OC(O[C@H]2/C=C/C=C/C=C/C=C/CC/C=C/C=C/[C@H](C)[C@@H](O)[C@@H](C)[C@H](C)OC(=O)C[C@H](O)C[C@H](O)C[C@H](O)CC[C@@H](O)[C@H](O)CC3(O)C[C@H](O)[C@@H](C(=O)O)[C@H](C2)O3)C(O)C(NC(=O)[C@H](N)CCC(=O)OC(C)(C)C)C1O (stereo partly drawn) [Compound N37, N-D-(O-tert-butyl)glutamylnystatin A1] | 16 (≈ 14.4 µM) | 2.73 | 4 | 4 (≈ 3.6 µM) | 32 (≈ 28.8 µM) | 8 (≈ 7.2 µM) | 8 | 8 | 16 (≈ 14.4 µM) | 16 (≈ 14.4 µM) | 8 (≈ 7.2 µM) | 16 (≈ 14.4 µM) | 8 (≈ 7.2 µM) | 4 | 4 | 4 (≈ 3.6 µM) | 32 (≈ 28.8 µM) | 32 (≈ 28.8 µM) | 8 (≈ 7.2 µM) | 8 (≈ 7.2 µM) | % of hemolysis at the concentration 60 μg ml^−1 [15]: 0.04%; MIC Candida albicans F2 [19]: 16 µg/mL (≈ 14.4 µM); MIC Candida albicans F5 [20]: 16 µg/mL (≈ 14.4 µM); MIC Candida albicans Gu4 [21]: 8 µg/mL (≈ 7.2 µM); MIC Candida albicans Gu5 [22]: 8 µg/mL (≈ 7.2 µM); MIC Candida albicans STY19 [23]: 32 µg/mL (≈ 28.8 µM); MIC Candida albicans STY31 [24]: 32 µg/mL (≈ 28.8 µM); MIC Candida albicans STY7 [25]: 32 µg/mL (≈ 28.8 µM); Cytotoxicity IC50 CCRF-CEM [26]: >100 µg/mL; Cytotoxicity IC50 HepG2 [27]: >100 µg/mL; Cytotoxicity IC50 LLC-PK1 [28]: 85.5 ± 4.30 µg/mL
